Reference: PMC11133327, “Discovery of potent antimycobacterial agents targeting lumazine synthase (RibH) of Mycobacterium tuberculosis” (Scientific Reports, 2024)

Assays:
Type in all cases: binding
[1] = biological target: T1, lumazine synthase (RibH) (Mycobacterium tuberculosis, UniProt P9WHE9); assay: […]; also riboflavin displacement ([…] at […])
[2] = biological target: T1, lumazine synthase (RibH); assay: […]; also riboflavin displacement ([…] at […]); remark: listed apart in the source
[3] = biological target: T1, lumazine synthase (RibH); assay: […]; also riboflavin displacement ([…] at […]); remark: listed apart in the source
[4] = biological target: T1, lumazine synthase (RibH); assay: biochemical

T1 sequence (P9WHE9 whole entry): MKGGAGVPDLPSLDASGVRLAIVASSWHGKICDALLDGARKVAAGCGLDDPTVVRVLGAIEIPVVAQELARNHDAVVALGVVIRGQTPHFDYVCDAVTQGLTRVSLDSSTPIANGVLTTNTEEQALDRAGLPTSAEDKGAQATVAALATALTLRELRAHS

O=C1NC(=Nc2ccccc2)SC1=Cc1ccc([N+](=O)[O-])o1 [A10, 5-((5-nitrofuran-2-yl)methylene)-2-(phenylimino)thiazolidin-4-one]
Kd [1]: 69 nM

O=C1NC(=Nc2ccc(Cl)cc2)SC1=Cc1ccc([N+](=O)[O-])o1 [A39, 2-((4-chlorophenyl)imino)-5-((5-nitrofuran-2-yl)methylene)thiazolidin-4-one]
Kd [2]: 2.3 nM

Cc1ccc(N=C2NC(=O)C(=Cc3ccc([N+](=O)[O-])o3)S2)cc1 [A52, 5-((5-nitrofuran-2-yl)methylene)-2-(p-tolylimino)thiazolidin-4-one]
Kd [3]: 48 nM

Cc1cc2nc3c(=O)[nH]c(=O)nc-3n(C[C@H](O)[C@H](O)[C@H](O)CO)c2cc1C [riboflavin]
Kd [4]: 86 nM
